Assay results taken from patent publication US20210253651A1, “METHOD FOR PRODUCING ORGANIC COMPOUND-ENCAPSULATING FERRITIN” (Ajinomoto Co., Inc., priority 2018, published 2021).
Counter-ions that a name gives are not always drawn. Like-named read-outs stand apart in the source and are kept apart here.

Assays:
FTH ferritin = biological target: T1, FTH ferritin (Homo sapiens, UniProt P02794); assay: one-step process incorporation of DOX into FTH ferritin; assay type: physicochemical; conditions: for incorporation efficiency of the reagent: FTH ferritin 1 mg/mL; for number of molecules of DOX incorporated into one molecule of FTH ferritin: presumed, average
T1 construct: made in house; host or cells: Escherichia coli BL21 (DE3), plasmid pET20-FTH
Protocol: (§1) In this reaction, an acetate buffer was used for pH 3, 4, 5 and 6, while Tris-HCl buffer was used for pH 7, 8 and 9. After the standing, 0.5 mL of water was added to the resulting solution. After the resulting solution was centrifuged (at 15,000 rpm for one minute), the supernatant was injected into a desalting column PD-10 (Sephadex G-25 filled product, GE Healthcare Inc.) equilibrated with 10 mM Tris-HCl buffer (pH 8) to separate the protein from a reagent that was not encapsulated. Whole amount (3.5 mL) of the resulting solution was concentrated to 0.1 mL by centrifugal ultrafiltration using Vivaspin 20-100K (GE Healthcare Inc.), and then absorbances at 280 nm and 480 nm were measured using spectrophotometer (DU-800, Beckman Coulter Inc.).
as §1, with “After” for “In this reaction, an acetate buffer was used for pH 3, 4, 5 and 6, while Tris-HCl buffer was used for pH 7, 8 and 9. After”, “into the” for “into a”
After the standing, 0.5 mL water was added to the resulting solution. After the resulting solution was centrifuged (at 15,000 rpm for one minute), the supernatant was injected into the desalting column PD-10 (Sephadex G-25 filled product, GE Healthcare Inc.) equilibrated with 10 mM Tris-HCl buffer (pH 8) to separate the protein from a reagent that was not encapsulated. Whole amount (3.5 mL) of the resulting solution was concentrated by centrifugal ultrafiltration using Vivaspin 20-100K (GE Healthcare Inc.). Glycine-HCl buffer (pH 2.3) was added to the resulting solution to achieve a final concentration of 100 mM, then a volume was controlled to 0.2 mL. […] The absorbance at 480 nm was measured using spectrophotometer (DU-800, Beckman Coulter Inc.) for the resulting solution in order to determine the concentration of DOX. The concentration of protein in the solution was determined using the protein assay CBB solution (Nacalai Tesque, Inc.) as well as bovine albumin as a standard.
After the standing, 0.5 mL water was added to the resulting solution. After the resulting solution was centrifuged (at 15,000 rpm for one minute), the supernatant was injected into the desalting column PD-10 (Sephadex G-25 filled product, GE Healthcare Inc.) equilibrated with 10 mM Tris-HCl buffer (pH 8) to separate the protein from a reagent that was not encapsulated. Whole amount (3.5 mL) of the resulting solution was concentrated by centrifugal ultrafiltration using Vivaspin 20-100K (GE Healthcare Inc.). Glycine-HCl buffer (pH 2.3) was added to the resulting solution to achieve a final concentration of 100 mM, then a volume was controlled to 0.5 mL. The absorbance at 480 nm was measured using spectrophotometer (DU-800, Beckman Coulter Inc.) for the resulting solution in order to determine the concentration of DOX. The concentration of protein in the solution was determined using the protein assay CBB solution (Nacalai Tesque, Inc.) as well as bovine albumin as a standard.

FTH-U2AF ferritin = biological target: T2, FTH-U2AF ferritin (Homo sapiens, UniProt P02794); assay: one-step incorporation of DOX into FTH-U2AF ferritin; assay type: physicochemical; conditions: pH 9, 50° C., 60 minutes, DOX 0.3 mg/L
T2 construct: pET20-FTH carrying a DNA encoding a human-derived ferritin H chain monomer as a template; made in house; host or cells: Escherichia coli BL21 (DE3), plasmid pET20-FTH-U2AF
Protocol: PCR was carried out using pET20-FTH carrying a DNA encoding a human-derived ferritin H chain monomer as a template as well as the following primers: 5′-[…]-3′ (SEQ ID NO: 18) and 5′-[…]-3′ (SEQ ID NO: 13), in order to obtain a DNA encoding the human-derived ferritin H chain (FTH-U2AF) in which an RNA recognition peptide (U2AF: TRQARR (SEQ ID NO: 17) R Tan and AD Frankel, Proc Natl Acad Sci USA 92, 5282-5286. (1995) which in incorporated herein by reference in its entirety)) is inserted and fused at the C-terminus of the ferritin monomer. The resulting PCR products were purified using Wizard DNA Clean-Up System (Promega Corporation), and then treated with restriction enzymes, DpnI and NdeI (Takara Bio Inc.) for self-ligation in order to construct an expression plasmid (pET20-FTH-U2AF) carrying a gene encoding FTH-U2AF monomer. […]
DOX was mixed with 1 mL of 50 mM Tris-HCl buffer (pH 9) that contains each mutate ferritin at a final concentration of 1 mg/mL, to achieve a final concentration of 0.3 mg/L, and then the resulting solutions were left to stand at 50° C. for 60 minutes. […] The concentration of contained protein was determined using the protein assay CBB solution (Nacalai Tesque, Inc.) as well as bovine albumin as a standard. The DOX concentration was determined based on analysis of the absorbance at 480 nm.

ferritin = conditions: cited from earlier work
[1] = pH 9, 60° C., after 30 minutes, DOX 0.1 mg/mL

T1 sequence (P02794 whole entry): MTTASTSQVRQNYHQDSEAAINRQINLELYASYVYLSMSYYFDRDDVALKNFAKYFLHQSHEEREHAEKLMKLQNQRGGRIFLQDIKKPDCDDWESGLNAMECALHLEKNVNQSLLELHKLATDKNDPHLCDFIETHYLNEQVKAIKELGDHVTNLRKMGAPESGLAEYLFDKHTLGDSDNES
T2 sequence (P02794 with tags, fused parts or gaps): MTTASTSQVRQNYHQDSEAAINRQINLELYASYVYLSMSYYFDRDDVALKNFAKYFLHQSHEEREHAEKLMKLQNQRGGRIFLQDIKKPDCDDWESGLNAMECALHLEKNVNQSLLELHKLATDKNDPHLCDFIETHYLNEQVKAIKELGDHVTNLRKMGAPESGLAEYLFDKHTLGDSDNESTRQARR

Question: What does the source list for `COc1cccc2c1C(=O)c1c(O)c3c(c(O)c1C2=O)C[C@@](O)(C(=O)CO)C[C@@H]3OC1CC(N)C(O)C(C)O1` (stereo partly shown) [DOX, Doxorubicin hydrochloride]?
Answer: incorporation efficiency of the reagent (FTH ferritin; pH 6 or less, 25° C., 60 minutes, DOX 0.1 mg/mL): ≤ 0.5 ° (wt); incorporation efficiency of the reagent (FTH ferritin; pH 9, 25° C., 60 minutes, DOX 0.1 mg/mL): ≥ 1 % (wt); incorporation efficiency of the reagent (FTH ferritin; pH 9, 60° C., 60 minutes, DOX 0.1 mg/mL): ≥ 5 % (wt); number of molecules of DOX incorporated into one molecule of FTH ferritin (FTH ferritin; pH 9, 60° C., 60 minutes, at maximum incorporation): 165; incorporation efficiency of the reagent at the maximum (FTH ferritin; pH 9, 60° C., 60 minutes, concentration ratio of FTH ferritin to DOX varied (10:3 or less)): 16 % (wt); maximum incorporation efficiency of the reagent (FTH ferritin; [1]): 5 % (wt); number of molecules of DOX incorporated into one molecule of FTH ferritin (FTH ferritin; [1]): 50; rate of DOX incorporation (FTH ferritin; pH 9, 60° C., until 30 minutes): 1.7 mg-DOX/minute per gram of ferritin; incorporation efficiency of the reagent (FTH-U2AF ferritin): 17.9 % (wt); doxorubicin molecules encapsulated in ferritin (ferritin; denaturing with urea and refolding): approximately 33 molecules; doxorubicin molecules encapsulated in ferritin (ferritin; disassembly at pH 2, reassembly at pH 7-9): approximately 28 molecules; doxorubicin molecules encapsulated in ferritin (ferritin; high pressure (200-800 MPa) for 6-20 hours): 10-20 molecules; doxorubicin molecules encapsulated in ferritin (ferritin; modified ferritin, pH 2 by addition of HCl): 30-90 molecules
